Where “and” joins values, the source holds several entries; their conditions need not be identical. Equal entries are not always repeated. Inconclusive results and toxic doses are left out.
Tested on: B6C3F1 mice, B16 melanoma ip, median survival T/C
Experiment: NCI In Vivo Anticancer Drug Screen. Data for tumor model B16 Melanoma (intraperitoneal) in B6C3F1 mice
Settings: endpoint: median survival time, higher = longer survival
Method in brief: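 Mice bearing transplanted tumor were dosed with compound or vehicle, and survival was recorded. Activity is expressed as the treated-group measurement (T) divided by the vehicle control measurement (C).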

[1] = dose: 6.25 mg/kg/injection, schedule: Q01DX009 (ip), vehicle: saline with Tween-80
[2] = dose: 12.5 mg/kg/injection, schedule: Q01DX009 (ip), vehicle: saline with Tween-80
[3] = dose: 25.0 mg/kg/injection, schedule: Q01DX009 (ip), vehicle: saline with Tween-80
[4] = dose: 50.0 mg/kg/injection, schedule: Q01DX009 (ip), vehicle: saline with Tween-80
[5] = dose: 100.0 mg/kg/injection, schedule: Q01DX009 (ip), vehicle: saline with Tween-80
[6] = dose: 50.0 mg/kg/injection, schedule: Q01DX009 (ip), vehicle: Klucel (hydroxypropylcellulose) (HPC)
[7] = dose: 100.0 mg/kg/injection, schedule: Q01DX009 (ip), vehicle: Klucel (hydroxypropylcellulose) (HPC)

SMILES: O=C1C=CC(=O)N1c1ccc(Cl)cc1
- T/C (dose: 0.31 mg/kg/injection, schedule: Q01DX009 (ip), vehicle: Klucel (hydroxypropylcellulose) (HPC)): 100 % of control and 102 % of control
- T/C (dose: 0.63 mg/kg/injection, schedule: Q01DX009 (ip), vehicle: Klucel (hydroxypropylcellulose) (HPC)): 111 % of control and 86 % of control
- T/C (dose: 1.25 mg/kg/injection, schedule: Q01DX009 (ip), vehicle: Klucel (hydroxypropylcellulose) (HPC)): 96 % of control and 100 % of control
- T/C (dose: 2.5 mg/kg/injection, schedule: Q01DX009 (ip), vehicle: Klucel (hydroxypropylcellulose) (HPC)): 100 % of control

SMILES: CC(=O)C1=C(O)C2(O)C(=O)c3c(c(C)c4ccc(C)c(O)c4c3O)CC2C(N)C1=O (stereo not drawn)
- T/C (dose: 3.75 mg/kg/injection, schedule: Q01DX009 (ip), vehicle: saline + alcohol): 109 % of control
- T/C (dose: 7.3 mg/kg/injection, schedule: Q01DX009 (ip), vehicle: saline + alcohol): 120 % of control
- T/C (dose: 7.5 mg/kg/injection, schedule: Q01DX009 (ip), vehicle: saline + alcohol): 114 % of control

SMILES: Cn1cc(NC(=O)c2cc(NC(=O)c3cc(NC=O)cn3C)cn2C)cc1C(=O)NCCC(=N)N
- T/C (dose: 6.25 mg/kg/injection, schedule: Q01DX009 (ip), vehicle: water): 99 % of control and 101 % of control and 105 % of control

SMILES: C/C(=N\NC(=S)N1CC2CCC(CC2)C1)c1nccs1
- T/C [1]: 100 % of control
- T/C [2]: 107 % of control
- T/C [3]: 105 % of control

SMILES: CCOC(=O)c1ccc(NC(=O)Nc2nc(C)cs2)cc1
- T/C (dose: 12.5 mg/kg/injection, schedule: Q01DX009 (ip), vehicle: distilled water + Tween-80): 120 % of control
- T/C (dose: 25.0 mg/kg/injection, schedule: Q01DX009 (ip), vehicle: distilled water + Tween-80): 120 % of control

SMILES: COc1ccc(S(=O)(=O)N/N=C/C(=O)O)cc1
- T/C [1]: 101 % of control and 104 % of control
- T/C [2]: 116 % of control and 120 % of control
- T/C [4]: 119 % of control

SMILES: Cc1ccc(N=NN(C)C)cc1
- T/C [3]: 100 % of control
- T/C [4]: 110 % of control
- T/C [5]: 107 % of control

SMILES: CCC12C[N+]3([O-])CCc4c([nH]c5ccccc45)C(C(=O)OC)(c4cc5c(cc4OC)N(C)C4C(O)(C(=O)OC)C(OC(C)=O)C6(CC)C=CCN7CCC54C76)CC(C3)C1O2 (stereo not drawn)
- T/C (dose: 0.62 mg/kg/injection, schedule: Q01DX009 (ip), vehicle: water): 112 % of control
- T/C (dose: 1.25 mg/kg/injection, schedule: Q01DX009 (ip), vehicle: water): 104 % of control and 107 % of control
- T/C (dose: 2.5 mg/kg/injection, schedule: Q01DX009 (ip), vehicle: saline): 185 % of control
- T/C (dose: 5.0 mg/kg/injection, schedule: Q01DX009 (ip), vehicle: saline): 246 % of control
- T/C (dose: 5.0 mg/kg/injection, schedule: Q01DX009 (ip), vehicle: water): 108 % of control and 261 % of control
- T/C (dose: 10.0 mg/kg/injection, schedule: Q01DX009 (ip), vehicle: saline): 373 % of control
- T/C (dose: 10.0 mg/kg/injection, schedule: Q01DX009 (ip), vehicle: water): 121 % of control and 309 % of control

SMILES: OC1COC(c2ccccc2)OC1C1OC(c2ccccc2)OC2COC(c3ccccc3)OC21 (stereo not drawn)
- T/C (dose: 3.12 mg/kg/injection, schedule: Q01DX009 (ip), vehicle: saline with Tween-80): 93 % of control
- T/C [1]: 93 % of control
- T/C [2]: 91 % of control

SMILES: CCCCCCCCCCCCO[P+](=O)OCCCCCCCCCCCC
- T/C [4]: 94 % of control
- T/C [5]: 96 % of control

SMILES: O=C(O)c1cc(C(=O)O)c(C(=O)O)cc1C(=O)O.[NH2-].[NH2-].[NH2-].[NH2-].[Pt+2].[Pt+2]
- T/C (dose: 0.12 mg/kg/injection, schedule: Q01DX009 (ip), vehicle: water): 110 % of control
- T/C (dose: 0.25 mg/kg/injection, schedule: Q01DX009 (ip), vehicle: water): 104 % of control
- T/C (dose: 0.5 mg/kg/injection, schedule: Q01DX009 (ip), vehicle: water): 109 % of control and 110 % of control
- T/C (dose: 1.0 mg/kg/injection, schedule: Q01DX009 (ip), vehicle: water): 114 % of control and 118 % of control
- T/C (dose: 8.0 mg/kg/injection, schedule: Q01DX009 (ip), vehicle: water): 154 % of control

SMILES: O=C(NC(Cc1ccccc1)C(=O)O)OCc1ccccc1 (stereo not drawn)
- T/C [6]: 99 % of control
- T/C [7]: 102 % of control

SMILES: O=C1NC(O)CCN1C1OC(CO)C(O)C1O (stereo not drawn)
- T/C (dose: 25.0 mg/kg/injection, schedule: Q01DX008 (ip), vehicle: saline): 104 % of control
- T/C (dose: 50.0 mg/kg/injection, schedule: Q01DX008 (ip), vehicle: saline): 99 % of control
- T/C (dose: 100.0 mg/kg/injection, schedule: Q01DX008 (ip), vehicle: saline): 104 % of control
- T/C (dose: 200.0 mg/kg/injection, schedule: Q01DX008 (ip), vehicle: saline): 108 % of control
- T/C (dose: 400.0 mg/kg/injection, schedule: Q01DX008 (ip), vehicle: saline): 108 % of control
- T/C (dose: 800.0 mg/kg/injection, schedule: Q01DX008 (ip), vehicle: saline): 96 % of control

SMILES: N#CC(C#N)=NNc1ccc2cn[nH]c2c1
- T/C (dose: 12.5 mg/kg/injection, schedule: Q01DX009 (ip), vehicle: Klucel (hydroxypropylcellulose) (HPC)): 108 % of control
- T/C (dose: 25.0 mg/kg/injection, schedule: Q01DX009 (ip), vehicle: Klucel (hydroxypropylcellulose) (HPC)): 100 % of control
- T/C [6]: 106 % of control
- T/C [7]: 102 % of control

SMILES: NNc1nncc2ccccc12
- T/C (dose: 12.5 mg/kg/injection, schedule: Q01DX009 (ip), vehicle: saline): 93 % of control
- T/C (dose: 25.0 mg/kg/injection, schedule: Q01DX009 (ip), vehicle: saline): 98 % of control
- T/C (dose: 50.0 mg/kg/injection, schedule: Q01DX009 (ip), vehicle: saline): 93 % of control

SMILES: Cc1cn(C2CC(F)C(CO)O2)c(=O)[nH]c1=O (stereo not drawn)
- T/C (dose: 125.0 mg/kg/injection, schedule: Q01DX009 (ip), vehicle: suspension in saline): 117 % of control
- T/C (dose: 250.0 mg/kg/injection, schedule: Q01DX009 (ip), vehicle: suspension in saline): 116 % of control

— PubChem BioAssay AID200 (DTP/NCI, 2004)
